Results: patent US5220050A, “Peptide mimetic compounds useful as platelet aggregation inhibitors” (G. D. Searle & Co., priority 1991, dated 1993)
Where a name gives a salt, the structure may show the parent alone.

The molecules below were run on Platelet Aggregation in Dog PRP (assay: In-Vitro Platelet Aggregation in PRP (ADP induced)). Conditions: Canis lupus familiaris, Platelet, in-vitro.
Assay type: cell-based
Protocol: Healthy male or female dogs were fasted for 8 hours prior to drawing blood; then 30 ml whole blood was collected using a butterfly needle and 30 cc plastic syringe with 3 ml of 0.129 M buffered sodium citrate (3.8%). The syringe was rotated carefully as blood was drawn to mix the citrate. Platelet-rich plasma (PRP) was prepared by centrifugation at 975×g for 3.17 minutes at room temperature, allowing the centrifuge to coast to a stop without braking. The PRP was removed from the blood with a plastic pipette and placed in a plastic capped, 50 ml Corning conical sterile centrifuge tube which was held at room temperature. Platelet poor plasma (PPP) was prepared by centrifuging the remaining blood at 2000×g for 15 minutes at room temperature allowing the centrifuge to coast to a stop without braking. The PRP was adjusted with PPP to a count of 2-3×10^8 platelets per ml. 400 μl of the PRP preparation and 50 μl of the compound to be tested or saline were preincubated for 1 minute at 37° C. in a BioData aggregometer (BioData, Horsham, Pa.). 50 μl of adenosine 5'diphosphate (ADP) (50 μm final concentration) was added to the cuvettes and the aggregation was monitored for 1 minute. All compounds are tested in duplicate. Results are calculated as follows:
Percent of control=[(maximal OD minus initial OD of compound) divided by (maximal OD minus initial OD of control saline)]×100. The % inhibition=100-(percent of control).
Work on N=C(N)c1ccc(CCCCC(=O)NC(CC(=O)O)c2ccccc2O)cc1 (racemic) [(±)-β-[[5-[4-(aminoiminomethyl)phenyl]-1-oxopentyl]amino-2-hydroxybenzenepropanoic acid] yielded an IC50 of 2 µM.
COc1ccc(C(CC(=O)O)NC(=O)CCCCc2ccc(C(=N)N)cc2)c(O)c1 (racemic) [(±)-β-[[5-[4-(aminoiminomethyl)phenyl]-1-oxopentyl]amino]-2-hydroxy-4-methoxybenzenepropanoic acid] showed an IC50 of 0.69 µM.
Work on N=C(N)c1ccc(CCCCC(=O)NC(CC(=O)O)c2cccs2)cc1 (racemic) [(±)-β-[[5-[4-(aminoiminomethyl)phenyl]-1-oxopentyl]amino]-2-thiophenepropanoic acid] yielded an IC50 of 1.7 µM.
With C[n+]1cccc(C(CC(=O)O)NC(=O)CCCCc2ccc(C(=N)N)cc2)c1 (centres unmarked) [3-[1-[[5-[4-(aminoiminomethyl)phenyl]-1-oxopentyl]amino]-2-carboxyethyl]-1-methylpyridinium chloride] the IC50 was 5.8 µM.
Work on C=CC(CC(=O)O)NC(=O)CCCCc1ccc(C(=N)N)cc1 (centres unmarked) [3-[[5-[4-(aminoiminomethyl)phenyl]-1-oxopentyl]amino]-4-pentenoic acid] yielded an IC50 of 9.2 µM.
CC(CCC(=O)NC(C)CC(=O)O)Cc1ccc(C(=N)N)cc1 (centres unmarked) [3-[[5-[4-(aminoiminomethyl)phenyl]-4-methyl-1-oxopentyl]amino]butanoic acid] gave an IC50 of 1.25 µM.
Molecule C[C@H](CC(=O)O)NC(=O)CCCCc1ccc(C(=N)N)cc1 [3R-[[5-[4-(aminoiminomethyl)phenyl]-1-oxopentyl]amino]butanoic acid] has an IC50 of 1.3 µM.
N=C(N)c1ccc(CCCCC(=O)NC(CC(=O)O)c2ccc(C(=N)N)cc2)cc1 (stereo not drawn) [4-(aminoiminomethyl)-β-[[5-[4-(aminoiminomethyl)phenyl]-1-oxopentyl]amino]benzenepropanoic acid] was tested, and the IC50 was 1.8 µM.
Molecule N=C(N)c1ccc(CCCCC(=O)NCCC(=O)O)cc1 [N-[5-[4 (aminoiminomethyl)phenyl]-1-oxopentyl]-β-alanine] has an IC50 of 6 µM.
With N=C(N)c1ccc(CCCCC(=O)NCC(O)C(=O)O)cc1 (stereo not drawn) [N-[5-[4-(Aminoiminomethyl)phenyl]-1-oxopentyl]-2-hydroxy-β-alanine] the IC50 was 10 µM.
N=C(N)c1ccc(CCCCC(=O)NCCC(=O)OCc2ccccc2)cc1 [N-[5-[4-(Aminoiminomethyl)phenyl]-1-oxopentyl]-β-alanine, phenylmethyl ester] was tested, and the IC50 was 5 µM.
For N=C(N)c1ccc(CCCCC(=O)NCC(F)C(=O)O)cc1 (stereo not drawn) [N-[5-[4-(Aminoiminomethyl]phenyl]-1-oxopentyl]-2-fluoro-β-alanine], the IC50 was 30 µM.
With N=C(N)c1ccc(CCCCC(=O)NC(CC(=O)O)Cc2ccccc2)cc1 (stereo not drawn) [β-[5-[4-(Aminoiminomethyl)phenyl]-1-oxopentyl]amino]benzenebutanoic acid] the IC50 was 3 µM.
With N=C(N)c1ccc(CCCCC(=O)NC(CC(=O)O)c2ccc(-c3ccccc3)cc2)cc1 (stereo not drawn) [β-[[5-[4-(Aminoiminomethyl)phenyl)-1-oxopentyl]amino][1,1'-biphenyl]-4-propanoic acid, acetate salt] the IC50 was 2.3 µM.
N=C(N)c1ccc(C#CCCC(=O)NC(CC(=O)O)c2ccccc2)cc1 (stereo not drawn) [β-[[5-[4-(aminoiminomethyl)phenyl]-1-oxo-4-pentynyl]amino]benzenepropanoic acid] showed an IC50 of 1.8 µM.
For N=C(N)c1ccc(CCCCC(=O)NC(CC(=O)O)c2ccc3c(c2)OCO3)cc1 (stereo not drawn) [β-[[5-[4-(aminoiminomethyl)phenyl]-1-oxopentyl]amino]-1,3-benzodioxole-5-propanoic acid], the IC50 was 0.28 µM.
For COc1ccc(C(CC(=O)O)NC(=O)CCCCc2ccc(C(=N)N)cc2)c(OC)c1 (stereo not drawn) [β-[[5-[4-(aminoiminomethyl)phenyl]-1-oxopentyl]amino]-2,4-dimethoxybenzenepropanoic acid], the IC50 was 2.5 µM.
COc1ccc(OC)c(C(CC(=O)O)NC(=O)CCCCc2ccc(C(=N)N)cc2)c1 (stereo not drawn) [β-[[5-[4-(aminoiminomethyl)phenyl]-1-oxopentyl]amino]-2,5-dimethoxybenzenepropanoic acid] gave an IC50 of 9 µM.
In the case of N=C(N)c1ccc(CCCCC(=O)NC(CC(=O)O)c2ccccc2F)cc1 (stereo not drawn) [β-[[5-[4-(aminoiminomethyl)phenyl]-1-oxopentyl]amino]-2-fluorobenzenepropanoic acid], the IC50 is reported as 5.2 µM.
N=C(N)c1ccc(CCCCC(=O)NC(CC(=O)O)c2ccccn2)cc1 (stereo not drawn) [β-[[5-[4-(aminoiminomethyl)phenyl]-1-oxopentyl]amino]-2-pyridinepropanoic acid] was tested, and the IC50 was 2.3 µM.
For N=C(N)c1ccc(CCCCC(=O)NC(CC(=O)O)c2ccc(Cl)c(Cl)c2)cc1 (stereo not drawn) [β-[[5-[4-(aminoiminomethyl)phenyl]-1-oxopentyl]amino]-3,4-dichlorobenzenepropanoic acid], the IC50 was 6.8 µM.
Molecule COc1ccc(C(CC(=O)O)NC(=O)CCCCc2ccc(C(=N)N)cc2)cc1OC (stereo not drawn) [β-[[5-[4-(aminoiminomethyl)phenyl]-1-oxopentyl]amino]-3,4-dimethoxybenzenepropanoic acid] has an IC50 of 0.53 µM.
Molecule N=C(N)c1ccc(CCCCC(=O)NC(CC(=O)O)c2cc(Cl)cc(Cl)c2)cc1 (stereo not drawn) [β-[[5-[4-(aminoiminomethyl)phenyl]-1-oxopentyl]amino]-3,5-dichlorobenzenepropanoic acid] has an IC50 of 6 µM.
COc1cc(OC)cc(C(CC(=O)O)NC(=O)CCCCc2ccc(C(=N)N)cc2)c1 (stereo not drawn) [β-[[5-[4-(aminoiminomethyl)phenyl]-1-oxopentyl]amino]-3,5-dimethoxybenzenepropanoic acid] gave an IC50 of 0.33 µM.
With N=C(N)c1ccc(CCCCC(=O)NC(CC(=O)O)c2cccc(C(F)(F)F)c2)cc1 (stereo not drawn) [β-[[5-[4-(aminoiminomethyl)phenyl]-1-oxopentyl]amino]-3-(trifluoromethyl)benzenepropanoic acid] the IC50 was 7 µM.
N#Cc1cccc(C(CC(=O)O)NC(=O)CCCCc2ccc(C(=N)N)cc2)c1 (stereo not drawn) [β-[[5-[4-(aminoiminomethyl)phenyl]-1-oxopentyl]amino]-3-cyanobenzenepropanoic acid] showed an IC50 of 1.4 µM.
Molecule N=C(N)c1ccc(CCCCC(=O)NC(CC(=O)O)C2CC=CCC2)cc1 (stereo not drawn) [β-[[5-[4-(aminoiminomethyl)phenyl]-1-oxopentyl]amino]-3-cyclohexene-1-propanoic acid] has an IC50 of 4 µM.
N=C(N)c1ccc(CCCCC(=O)NC(CC(=O)O)c2cccc(F)c2)cc1 (stereo not drawn) [β-[[5-[4-(aminoiminomethyl)phenyl]-1-oxopentyl]amino]-3-fluorobenzenepropanoic acid] was tested, and the IC50 was 1.3 µM.
COc1cccc(C(CC(=O)O)NC(=O)CCCCc2ccc(C(=N)N)cc2)c1 (stereo not drawn) [β-[[5-[4-(aminoiminomethyl)phenyl]-1-oxopentyl]amino]-3-methoxybenzenepropanoic acid] showed an IC50 of 1.3 µM.
For N=C(N)c1ccc(CCCCC(=O)NC(CC(=O)O)c2cccc(Oc3ccccc3)c2)cc1 (stereo not drawn) [β-[[5-[4-(aminoiminomethyl)phenyl]-1-oxopentyl]amino]-3-phenoxybenzenepropanoic acid], the IC50 was 5.1 µM.
N=C(N)c1ccc(CCCCC(=O)NC(CC(=O)O)c2cccnc2)cc1 (stereo not drawn) [β-[[5-[4-(aminoiminomethyl)phenyl]-1-oxopentyl]amino]-3-pyridinepropanoic acid] gave an IC50 of 0.12 µM.
Molecule N=C(N)c1ccc(CCCCC(=O)NC(CC(=O)O)c2ccc(OCc3ccccc3)cc2)cc1 (stereo not drawn) [β-[[5-[4-(aminoiminomethyl)phenyl]-1-oxopentyl]amino]-4-(phenylmethoxy)benzenepropanoic acid] has an IC50 of 1.2 µM.
For N=C(N)c1ccc(CCCCC(=O)NC(CC(=O)O)c2ccc(C(F)(F)F)cc2)cc1 (stereo not drawn) [β-[[5-[4-(aminoiminomethyl)phenyl]-1-oxopentyl]amino]-4-(trifluoromethyl)benzenepropanoic acid], the IC50 was 4.3 µM.
N=C(N)c1ccc(CCCCC(=O)NC(CC(=O)O)c2ccc(Br)cc2)cc1 (stereo not drawn) [β-[[5-[4-(aminoiminomethyl)phenyl]-1-oxopentyl]amino]-4-bromobenzenepropanoic acid] was tested, and the IC50 was 3.1 µM.
Work on N=C(N)c1ccc(CCCCC(=O)NC(CC(=O)O)c2ccc(C(=O)O)cc2)cc1 (stereo not drawn) [β-[[5-[4-(aminoiminomethyl)phenyl]-1-oxopentyl]amino]-4-carboxybenzenepropanoic acid] yielded an IC50 of 1.3 µM.
With N=C(N)c1ccc(CCCCC(=O)NC(CC(=O)O)c2ccc(Cl)cc2)cc1 (stereo not drawn) [β-[[5-[4-(aminoiminomethyl)phenyl]-1-oxopentyl]amino]-4-chlorobenzenepropanoic acid] the IC50 was 2.8 µM.
N#Cc1ccc(C(CC(=O)O)NC(=O)CCCCc2ccc(C(=N)N)cc2)cc1 (stereo not drawn) [β-[[5-[4-(aminoiminomethyl)phenyl]-1-oxopentyl]amino]-4-cyanobenzenepropanoic acid] gave an IC50 of 1.3 µM.
With CCOc1ccc(C(CC(=O)O)NC(=O)CCCCc2ccc(C(=N)N)cc2)cc1 (stereo not drawn) [β-[[5-[4-(aminoiminomethyl)phenyl]-1-oxopentyl]amino]-4-ethoxybenzenepropanoic acid] the IC50 was 0.4 µM.
N=C(N)c1ccc(CCCCC(=O)NC(CC(=O)O)c2ccc(F)cc2)cc1 (stereo not drawn) [β-[[5-[4-(aminoiminomethyl)phenyl]-1-oxopentyl]amino]-4-fluorobenzenepropanoic acid] showed an IC50 of 3 µM.
In the case of N=C(N)c1ccc(CCCCC(=O)NC(CC(=O)O)c2ccc(O)cc2)cc1 (stereo not drawn) [β-[[5-[4-(aminoiminomethyl)phenyl]-1-oxopentyl]amino]-4-hydroxybenzenepropanoic acid], the IC50 is reported as 0.8 µM.
Molecule N=C(N)c1ccc(CCCCC(=O)NC(CC(=O)O)c2ccc(Oc3ccccc3)cc2)cc1 (stereo not drawn) [β-[[5-[4-(aminoiminomethyl)phenyl]-1-oxopentyl]amino]-4-phenoxybenzenepropanoic acid] has an IC50 of 2 µM.
